{"source": "patent US20250339462A1", "about": "“CANCER TREATMENT USING ULTRA-HIGH CONCENTRATION GASEOUS NITRIC OXIDE AND A CHECKPOINT INHIBITOR” (Beyond Air, Inc., priority 2022, published 2025)", "test_system": "4T1 tumor-bearing mice", "assay": "4T1 breast cancer model, UNO/Anti-CTLA-4 Repeated dose study", "format": "in vivo, mouse", "method": "Preparation of 4T1 cells: Cancer cell suspension, in Hanks' Balanced Salt Solution (HBSS) (Biological Industries, Israel), at a concentration of 5.0×10^6 cells/ml was freshly prepared on the day of the cancer model induction. Cells were grown to a 70-80% confluency and harvested using trypsin. The cells were centrifuged at 1,200 revolutions per minute (rpm)—241 G for 8 minutes, then the pellet was re-suspended in 1 ml of HBSS. The cells were counted using an automated cell counter and a suspension with a concentration of 5.0×10^6 cells/ml was prepared. Cell viability must be above 90% before cell inoculation to the mice, otherwise new cells will need to be prepared. At the point of inoculation, cells will be at passage 8 at most. The cell suspension was then aspirated into a 1 ml syringe with a 27 G needle, for subcutaneous (s.c.) injection. All injection volume was used and was not re-introduced into the stock solution.\nInoculation of 4T1 cancer cells to mice—Cancer cell suspension at a concentration of 5.0×10^6 cells/ml was inoculated to the right flank of animals at a volume of 100 μl per mouse. Female Balb/c mice were inoculated with 100 μl of 5.0×10^6 4T1 cells/ml. Administration was performed as soon as possible following cell preparation and after manual shaking prior to withdrawal of cell suspension. Injections were performed using a 1 ml syringe and a 27 G needle where withdrawal is done without the needle.\nUNO and N2 treatment—On the day of treatment, mice were anesthetized by an intraperitoneal (i.p.) injection of 100 mg/kg of ketamine and 10 mg/kg of xylazine hydrochloride solution. Tumor-bearing mice were treated with either N2 or UNO at 50,000 ppm or 100,000 ppm. UNO at 50,000 ppm was administered intratumorally by a 23 G needle for 10 minutes, at 0.2 LPM and 2 bar exit pressure. UNO at 100,000 ppm was administered intratumorally by a 23 G needle for 2 minutes, at 0.2 LPM and 2 bar exit pressure. After treatment, all mice were warmed and closely monitored until complete recovery was observed.\nInjection of anti-CTLA-4—Anti-CTLA-4 was administered up to 5 times intraperitoneally (i.p.) at a dose of 5 mg/kg, i.p., using a 1 ml syringe with a 27 G needle. The injection was administered to approximately the same location each time.\nUNO/Anti-CTLA-4 Repeated dose study—Balb/c mice (60) were inoculated with mouse breast cancer carcinoma (4T1) cells injected subcutaneously (s.c.) to the right flank. […]\nPrimary tumor volume progression was monitored twice a week by measuring the tumor using a digital caliper calculated as: […]\nMice survival was evaluated. Mice that reached a tumor volume of ≥1500 mm^3 and/or a score of 12 were humanely euthanized, and the time of death was recorded. Metastases development was evaluated postmortem.", "note": "Entries after “also recorded” stand apart in the source; their conditions may differ."}
{"molecule": "[N]=O", "note": "[UNO, nitric oxide]", "values": [{"measurement": "Survival hazard ratio vs anti-mCTLA-4", "setting": "FIG. 14C, Cox model", "value": 0.16}, {"measurement": "Survival hazard ratio vs untreated", "setting": "FIG. 14C, Cox model", "value": 0.31}, {"measurement": "Mice survival vs anti-mCTLA-4 monotherapy", "setting": "UNO twice (FIG. 14C)", "value": "prolonged survival; also recorded: significantly prolongs mice survival"}, {"measurement": "Tumors smaller compared to only anti-mCTLA-4", "setting": "only UNO, 100,000 ppm 2 min twice, day 13 after first UNO treatment, P=0.1158", "value": 12.9, "unit": "%"}]}
